Earlier results as cited in patent US20040131702A1, “Use of selenite or preparation containing selenite for treating wounds” (priority 2001, published 2004).
Where “and” joins values, the source holds several entries; their conditions need not be identical. Identical values can stand only once.

Key:
[1] = acid environment
human body = settings: in vivo
animals = settings: in vivo

Compound | Standard redox potential E0 [1] | Selenium content of the daily food above which the human body will fall ill (human body) | Selenium content of food above which animals exhibit symptoms of poisoning (animals)
O=[Se](O)O [selenite] | −0.740 Volt and −0.740 (acid environment) Volt | – | –
[Se] [selenium] | – | more than 1 μg of selenium/g | 5 to 10 μg of selenium/g
